Test results from the supplement of paper PMC10307832.

Tests used:
Experiment in all cases: relative viability (nuclei count vs DMSO), 5 days (fraction); higher = more cells survive
[1] = compound: Cc1ccc2nc(NCCN)c3ncc(C)n3c2c1 + COc1cc2c(Oc3ccc(NC(=O)C4(C(=O)Nc5ccc(F)cc5)CC4)cc3F)ccnc2cc1OCCCN1CCOCC1 [Foretinib] (partner 0.25 µM)
Summary of the method: (§1)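 Relative viability equals treated-well nuclei counts divided by vehicle-well nuclei counts. Counts came from 4× images of lung cancer cell lines grown in 1536-well plates for 5 days after pin-tool dosing on the day after seeding. Dosing used one drug alone or a fixed anchor-drug dose plus five library-drug doses (not always all listed) in √10 steps, and values are medians of duplicate plates.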

[2] = compound: Cc1ccc2nc(NCCN)c3ncc(C)n3c2c1 + CS(=O)(=O)CCNCc1ccc(-c2ccc3ncnc(Nc4ccc(OCc5cccc(F)c5)c(Cl)c4)c3c2)o1 [Lapatinib] (partner 2 µM)
Summary of the method: as §1

Salubrinal + OSI-027 = compound: O=C(/C=C/c1ccccc1)NC(NC(=S)Nc1cccc2cccnc12)C(Cl)(Cl)Cl [Salubrinal] + COc1cccc2cc(-c3nc([C@H]4CC[C@H](C(=O)O)CC4)n4ncnc(N)c34)[nH]c12 [OSI-027] (partner 0.5 µM)
Summary of the method: as §1

Salubrinal + AZD7762 = compound: O=C(/C=C/c1ccccc1)NC(NC(=S)Nc1cccc2cccnc12)C(Cl)(Cl)Cl [Salubrinal] + NC(=O)Nc1cc(-c2cccc(F)c2)sc1C(=O)N[C@H]1CCCNC1 [AZD7762] (partner 0.2 µM)
Summary of the method: as §1

Cell Line | relative viability ([1]; first compound 0.04 µM) | relative viability ([1]; first compound 0.1265 µM) | relative viability ([1]; first compound 0.4 µM) | relative viability ([1]; first compound 1.265 µM) | relative viability ([1]; first compound 4 µM) | relative viability ([2]; first compound 0.04 µM) | relative viability ([2]; first compound 0.1265 µM) | relative viability ([2]; first compound 0.4 µM) | relative viability ([2]; first compound 1.265 µM) | relative viability ([2]; first compound 4 µM) | relative viability (Salubrinal + OSI-027; first compound 0.08 µM) | relative viability (Salubrinal + OSI-027; first compound 0.253 µM) | relative viability (Salubrinal + OSI-027; first compound 0.8 µM) | relative viability (Salubrinal + OSI-027; first compound 2.53 µM) | relative viability (Salubrinal + OSI-027; first compound 8 µM) | relative viability (Salubrinal + AZD7762; first compound 0.08 µM) | relative viability (Salubrinal + AZD7762; first compound 0.253 µM) | relative viability (Salubrinal + AZD7762; first compound 0.8 µM) | relative viability (Salubrinal + AZD7762; first compound 2.53 µM) | relative viability (Salubrinal + AZD7762; first compound 8 µM)
EPLC-272H | 0.664 | 0.809 | 0.64 | 0.75 | 0.692 | 1.04 | 0.981 | 0.777 | 0.829 | 0.977 | 0.297 | 0.286 | 0.293 | 0.258 | 0.249 | 0.229 | 0.191 | 0.304 | 0.229 | 0.156
H3255 | 1.11 | 0.961 | 0.744 | 0.98 | 0.764 | 0.275 | 0.268 | 0.398 | 0.252 | 0.283 | 0.689 | 0.553 | 0.748 | 0.603 | 0.603 | 0.967 | 0.786 | 1.03 | 0.87 | 0.859
HARA | 0.783 | 0.829 | 0.903 | 0.956 | 0.861 | 0.748 | 0.863 | 0.553 | 0.691 | 0.821 | 0.539 | 0.557 | 0.582 | 0.524 | 0.462 | 0.374 | 0.254 | 0.25 | 0.437 | 0.196
HCC-15 | 1.08 | 1.07 | 1.06 | 0.885 | 0.723 | 0.888 | 0.811 | 0.776 | 0.75 | 0.737 | 0.722 | 0.665 | 0.824 | 0.666 | 0.644 | 1.4 | 1.22 | 1.28 | 1.25 | 1.25
HCC-78 | 0.579 | 0.584 | 0.493 | 0.626 | 0.558 | 1.03 | 0.738 | 0.775 | 0.861 | 0.697 | 0.363 | 0.364 | 0.435 | 0.362 | 0.361 | 0.699 | 0.599 | 0.758 | 0.613 | 0.538
HCC-366 | 0.914 | 0.945 | 0.934 | 0.945 | 0.917 | 1.14 | 0.91 | 1.11 | 1.07 | 0.998 | 1.04 | 1.13 | 0.91 | 0.844 | 0.549 | 0.254 |  | 0.315 | 0.272 | 0.146
HCC-827 | 1.05 | 1.1 | 1.06 | 1.02 | 0.935 | 0.21 | 0.207 | 0.191 | 0.195 | 0.209 | 0.88 | 0.794 | 0.822 | 0.788 | 0.668 | 0.193 | 0.191 | 0.199 | 0.181 | 0.222
HOP-62 | 1.05 | 1.07 | 1.1 | 1.13 | 1.02 | 1.13 | 0.845 | 0.688 | 0.81 | 1.02 | 0.819 | 0.765 | 1.11 | 0.849 | 0.714 | 0.589 | 0.468 | 0.958 | 0.689 | 0.441
LC-2-ad | 0.96 | 0.879 | 0.876 | 0.984 | 0.868 | 0.939 | 0.922 | 0.915 | 0.945 | 0.89 | 0.91 | 0.797 | 1.03 | 0.818 | 0.782 | 0.946 | 0.832 | 0.89 | 0.823 | 0.647
LCLC-97TM1 | 0.91 | 0.998 | 0.934 | 0.931 | 0.892 | 1.06 | 1.42 | 0.78 | 1.33 | 1 | 0.574 | 0.433 | 0.671 | 0.56 | 0.601 | 0.268 | 0.288 | 0.227 | 0.139 | 0.202
LK-2 | 1.28 | 1.2 | 0.936 | 0.967 | 1.06 | 0.961 | 0.879 | 0.823 | 0.748 | 0.761 | 0.185 | 0.194 | 0.258 | 0.212 | 0.214 | 0.39 | 0.486 | 0.489 | 0.441 | 0.358
LOU-NH91 | 0.914 | 0.929 | 0.889 | 0.93 | 0.844 | 0.784 | 0.846 | 0.782 | 0.777 | 0.766 | 0.721 | 0.708 | 0.744 | 0.737 | 0.688 | 0.813 | 0.785 | 0.83 | 0.745 | 0.706
LU99A | 0.884 | 0.796 | 0.805 | 0.921 | 0.83 | 1 | 0.944 | 1.06 | 0.957 | 0.986 | 0.241 | 0.29 | 0.306 | 0.294 | 0.265 | 0.459 | 0.319 | 0.401 | 0.311 | 0.236
LXF-289 | 0.95 | 1 | 0.955 | 0.992 | 0.958 | 0.956 | 0.882 | 0.894 | 0.873 | 0.902 | 0.784 | 0.647 | 0.953 | 0.847 | 0.69 | 1.25 | 1.06 | 1.17 | 1.09 | 0.931
NCI-H23 | 1.09 | 1.04 | 0.963 | 0.88 | 1.03 | 1.09 | 1.12 | 1.19 | 1.15 | 0.937 | 0.59 | 0.573 | 0.647 | 0.539 | 0.606 | 0.175 | 0.206 | 0.236 | 0.23 | 0.23
NCI-H322M | 0.995 | 0.874 | 0.969 | 1.04 | 1.15 | 0.535 | 0.593 | 0.586 | 0.59 | 0.603 | 0.471 | 0.536 | 0.565 | 0.57 | 0.471 | 0.576 | 0.531 | 0.599 | 0.497 | 0.581
